Measurements: paper PMC7156458, “Synthetic biology based construction of biological activity-related library of fungal decalin-containing diterpenoid pyrones” (Nature Communications, 2020)

Target: Aβ42 (Homo sapiens, UniProt P05067)
Assay: Th-T (thioflavin-T) assay of Aβ42 aggregation
Assay type: biochemical
Details: for Th-T assay plate reading, mean of three wells (Supplementary Fig. 47): source data, Ab alone and No Ab as controls

Chain of Aβ42 (P05067 672-713): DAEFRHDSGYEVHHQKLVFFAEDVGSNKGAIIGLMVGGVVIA

Compound: C=C1CCC2C(C)(CC(=O)C=C(C)C)C(O)CCC2(C)C1Cc1c(OC)oc(CO)c(C)c1=O (centres unmarked) [Compound 19]
- Th-T fluorescence, mean of three wells (Aβ42 aggregation time course, reading M117): 3.6075
- Th-T fluorescence, mean of three wells (Aβ42 aggregation time course, reading M118): 3.626
- Th-T fluorescence, mean of three wells (Aβ42 aggregation time course, reading M119): 3.587
- Th-T fluorescence, mean of three wells (Aβ42 aggregation time course, reading M120): 3.625
- Th-T fluorescence, mean of three wells (Aβ42 aggregation time course, reading M121): 3.6213
- Th-T fluorescence, mean of three wells (Aβ42 aggregation time course, reading M122): 3.6222
- Th-T fluorescence, mean of three wells (Aβ42 aggregation time course, reading M123): 3.606
- Th-T fluorescence, mean of three wells (Aβ42 aggregation time course, reading M124): 3.5846
- Th-T fluorescence, mean of three wells (Aβ42 aggregation time course, reading M125): 3.61
- Th-T fluorescence, mean of three wells (Aβ42 aggregation time course, reading M126): 3.596
- Th-T fluorescence, mean of three wells (Aβ42 aggregation time course, reading M127): 3.587
- Th-T fluorescence, mean of three wells (Aβ42 aggregation time course, reading M128): 3.613
- Th-T fluorescence, mean of three wells (Aβ42 aggregation time course, reading M129): 3.627
- Th-T fluorescence, mean of three wells (Aβ42 aggregation time course, reading M130): 3.59
- Th-T fluorescence, mean of three wells (Aβ42 aggregation time course, reading M131): 3.596
- Th-T fluorescence, mean of three wells (Aβ42 aggregation time course, reading M132): 3.652
- Th-T fluorescence, mean of three wells (Aβ42 aggregation time course, reading M133): 3.618
- Th-T fluorescence, mean of three wells (Aβ42 aggregation time course, reading M134): 3.586
- Th-T fluorescence, mean of three wells (Aβ42 aggregation time course, reading M135): 3.587
- Th-T fluorescence, mean of three wells (Aβ42 aggregation time course, reading M136): 3.617
- Th-T fluorescence, mean of three wells (Supplementary Fig. 47, reading M137): 3.599
- Th-T fluorescence, mean of three wells (Supplementary Fig. 47, reading M138): 3.596
- Th-T fluorescence, mean of three wells (Supplementary Fig. 47, reading M139): 3.59
- Th-T fluorescence, mean of three wells (Supplementary Fig. 47, reading M140): 3.5958
- Th-T fluorescence, mean of three wells (Supplementary Fig. 47, reading M141): 3.577
- Th-T fluorescence, mean of three wells (Supplementary Fig. 47, reading M142): 3.567
- Th-T fluorescence, mean of three wells (Supplementary Fig. 47, reading M143): 3.559
- Th-T fluorescence, mean of three wells (Supplementary Fig. 47, reading M144): 3.573
- Th-T fluorescence, mean of three wells (Supplementary Fig. 47, reading M145): 3.546
- Th-T fluorescence, mean of three wells (Supplementary Fig. 47 source data, measurement M37 of time course): 3.411
- Th-T fluorescence, mean of three wells (Supplementary Fig. 47 source data, measurement M38 of time course): 3.42
- Th-T fluorescence, mean of three wells (Supplementary Fig. 47 source data, measurement M39 of time course): 3.449
- Th-T fluorescence, mean of three wells (Supplementary Fig. 47 source data, measurement M40 of time course): 3.484
- Th-T fluorescence, mean of three wells (Supplementary Fig. 47 source data, measurement M41 of time course): 3.495
- Th-T fluorescence, mean of three wells (Supplementary Fig. 47 source data, measurement M42 of time course): 3.511
- Th-T fluorescence, mean of three wells (Supplementary Fig. 47 source data, measurement M43 of time course): 3.5042
- Th-T fluorescence, mean of three wells (Supplementary Fig. 47 source data, measurement M44 of time course): 3.529
- Th-T fluorescence, mean of three wells (Supplementary Fig. 47 source data, measurement M45 of time course): 3.546
- Th-T fluorescence, mean of three wells (Supplementary Fig. 47 source data, measurement M46 of time course): 3.545
- Th-T fluorescence, mean of three wells (Supplementary Fig. 47 source data, measurement M47 of time course): 3.542
- Th-T fluorescence, mean of three wells (Supplementary Fig. 47 source data, measurement M48 of time course): 3.567
- Th-T fluorescence, mean of three wells (Supplementary Fig. 47 source data, measurement M49 of time course): 3.564
- Th-T fluorescence, mean of three wells (Supplementary Fig. 47 source data, measurement M50 of time course): 3.566
- Th-T fluorescence, mean of three wells (Supplementary Fig. 47 source data, measurement M51 of time course): 3.621
- Th-T fluorescence, mean of three wells (Supplementary Fig. 47 source data, measurement M52 of time course): 3.57
- Th-T fluorescence, mean of three wells (Supplementary Fig. 47 source data, measurement M53 of time course): 3.596
- Th-T fluorescence, mean of three wells (Supplementary Fig. 47 source data, measurement M54 of time course): 3.5732
- Th-T fluorescence, mean of three wells (Supplementary Fig. 47 source data, measurement M55 of time course): 3.592
- Th-T fluorescence, mean of three wells (Supplementary Fig. 47 source data, measurement M56 of time course): 3.662
- Th-T assay plate reading, mean of three wells (Supplementary Fig. 47) (measurement M1): 0.2658
- Th-T assay plate reading, mean of three wells (Supplementary Fig. 47) (measurement M2): 0.2823
- Th-T assay plate reading, mean of three wells (Supplementary Fig. 47) (measurement M3): 0.3173
- Th-T assay plate reading, mean of three wells (Supplementary Fig. 47) (measurement M4): 0.3889
- Th-T assay plate reading, mean of three wells (Supplementary Fig. 47) (measurement M5): 0.4637
- Th-T assay plate reading, mean of three wells (Supplementary Fig. 47) (measurement M6): 0.5676
- Th-T assay plate reading, mean of three wells (Supplementary Fig. 47) (measurement M7): 0.5832
- Th-T assay plate reading, mean of three wells (Supplementary Fig. 47) (measurement M8): 0.6497
- Th-T assay plate reading, mean of three wells (Supplementary Fig. 47) (measurement M9): 0.6755
- Th-T assay plate reading, mean of three wells (Supplementary Fig. 47) (measurement M10): 0.7219
- Th-T assay plate reading, mean of three wells (Supplementary Fig. 47) (measurement M11): 0.7495
- Th-T assay plate reading, mean of three wells (Supplementary Fig. 47) (measurement M12): 0.7862
- Th-T assay plate reading, mean of three wells (Supplementary Fig. 47) (measurement M13): 0.8322
- Th-T assay plate reading, mean of three wells (Supplementary Fig. 47) (measurement M14): 0.8734
- Th-T assay plate reading, mean of three wells (Supplementary Fig. 47) (measurement M15): 0.9399
- Th-T assay plate reading, mean of three wells (Supplementary Fig. 47) (measurement M16): 1.015
- Th-T fluorescence, mean of three wells (reading M17, Supplementary Fig. 47 source data): 1.1695
- Th-T fluorescence, mean of three wells (reading M18, Supplementary Fig. 47 source data): 1.449
- Th-T fluorescence, mean of three wells (reading M19, Supplementary Fig. 47 source data): 1.7884
- Th-T fluorescence, mean of three wells (reading M20, Supplementary Fig. 47 source data): 2.128
- Th-T fluorescence, mean of three wells (reading M21, Supplementary Fig. 47 source data): 2.459
- Th-T fluorescence, mean of three wells (reading M22, Supplementary Fig. 47 source data): 2.644
- Th-T fluorescence, mean of three wells (reading M23, Supplementary Fig. 47 source data): 2.778
- Th-T fluorescence, mean of three wells (reading M24, Supplementary Fig. 47 source data): 2.868
- Th-T fluorescence, mean of three wells (reading M25, Supplementary Fig. 47 source data): 2.94
- Th-T fluorescence, mean of three wells (reading M26, Supplementary Fig. 47 source data): 3.016
- Th-T fluorescence, mean of three wells (reading M27, Supplementary Fig. 47 source data): 3.079
- Th-T fluorescence, mean of three wells (reading M28, Supplementary Fig. 47 source data): 3.14
- Th-T fluorescence, mean of three wells (reading M29, Supplementary Fig. 47 source data): 3.171
- Th-T fluorescence, mean of three wells (reading M30, Supplementary Fig. 47 source data): 3.2173
- Th-T fluorescence, mean of three wells (reading M31, Supplementary Fig. 47 source data): 3.256
- Th-T fluorescence, mean of three wells (reading M32, Supplementary Fig. 47 source data): 3.313
- Th-T fluorescence, mean of three wells (reading M33, Supplementary Fig. 47 source data): 3.3097
- Th-T fluorescence, mean of three wells (reading M34, Supplementary Fig. 47 source data): 3.333
- Th-T fluorescence, mean of three wells (reading M35, Supplementary Fig. 47 source data): 3.364
- Th-T fluorescence, mean of three wells (reading M36, Supplementary Fig. 47 source data): 3.374
- Th-T fluorescence, mean of three wells (time course, reading M57): 3.606
- Th-T fluorescence, mean of three wells (time course, reading M58): 3.638
- Th-T fluorescence, mean of three wells (time course, reading M59): 3.598
- Th-T fluorescence, mean of three wells (time course, reading M60): 3.6035
- Th-T fluorescence, mean of three wells (time course, reading M61): 3.616
- Th-T fluorescence, mean of three wells (time course, reading M62): 3.642
- Th-T fluorescence, mean of three wells (time course, reading M63): 3.645
- Th-T fluorescence, mean of three wells (time course, reading M64): 3.635
- Th-T fluorescence, mean of three wells (time course, reading M65): 3.622
- Th-T fluorescence, mean of three wells (time course, reading M66): 3.629
- Th-T fluorescence, mean of three wells (time course, reading M67): 3.626
- Th-T fluorescence, mean of three wells (time-course reading M97, Supplementary Fig. 47 source data): 3.5997
- Th-T fluorescence, mean of three wells (time-course reading M98, Supplementary Fig. 47 source data): 3.623
- Th-T fluorescence, mean of three wells (time-course reading M99, Supplementary Fig. 47 source data): 3.625
- Th-T fluorescence, mean of three wells (time-course reading M100, Supplementary Fig. 47 source data): 3.601
- Th-T fluorescence, mean of three wells (time-course reading M101, Supplementary Fig. 47 source data): 3.5892
- Th-T fluorescence, mean of three wells (time-course reading M102, Supplementary Fig. 47 source data): 3.633
- Th-T fluorescence, mean of three wells (time-course reading M103, Supplementary Fig. 47 source data): 3.645
- Th-T fluorescence, mean of three wells (time-course reading M104, Supplementary Fig. 47 source data): 3.661
- Th-T fluorescence, mean of three wells (time-course reading M105, Supplementary Fig. 47 source data): 3.626
- Th-T fluorescence, mean of three wells (time-course reading M106, Supplementary Fig. 47 source data): 3.655
- Th-T fluorescence, mean of three wells (time-course reading M107, Supplementary Fig. 47 source data): 3.608
- Th-T fluorescence, mean of three wells (time-course reading M108, Supplementary Fig. 47 source data): 3.642
- Th-T fluorescence, mean of three wells (time-course reading M109, Supplementary Fig. 47 source data): 3.6107
- Th-T fluorescence, mean of three wells (time-course reading M110, Supplementary Fig. 47 source data): 3.642
- Th-T fluorescence, mean of three wells (time-course reading M111, Supplementary Fig. 47 source data): 3.621
- Th-T fluorescence, mean of three wells (time-course reading M112, Supplementary Fig. 47 source data): 3.604
- Th-T fluorescence, mean of three wells (time-course reading M113, Supplementary Fig. 47 source data): 3.595
- Th-T fluorescence, mean of three wells (time-course reading M114, Supplementary Fig. 47 source data): 3.63
- Th-T fluorescence, mean of three wells (time-course reading M115, Supplementary Fig. 47 source data): 3.6287
- Th-T fluorescence, mean of three wells (time-course reading M116, Supplementary Fig. 47 source data): 3.617
